Test results from publication PMC6364133, “Selectivity of Dietary Phenolics for Inhibition of Human Monoamine Oxidases A and B” (BioMed Research International, 2019).
Like-named read-outs stand apart in the source and are kept apart here. Blank lines part the entries; values can stand above or below the molecule they belong to.

What was measured:
MAO-A [1] = target: T1, MAO-A (Homo sapiens, UniProt P21397); test: MAO-A inhibition, kynuramine to 4-hydroxyquinoline, HPLC-fluorescence; type: biochemical; settings: for inhibition of MAO-A activity in screening: highest expected luminal concentration: curcumin 140, guaiacol 435, isoeugenol 110, pterostilbene 270, resveratrol 94, zingerone 51 µM, p < 0.05 vs control; for MAO-A Hill coefficient / IC50 / MAO-A inhibition (Figure 6): kynuramine 10 µM, 15 min; for MAO-A Hill coefficient / IC50: MAO-A 0.01 mg/mL; for Selectivity Index: ratio of MAO-B IC50/MAO-A IC50; for MAO-A inhibition (Figure 6): 15 µM test compound (clorgyline 1 µM, selegiline 0.5 µM)
T1 construct: purchased BD Biosciences (San Jose, CA) or Corning Discovery Labware (Woburn, MA)
T1 sequence (P21397 1-527): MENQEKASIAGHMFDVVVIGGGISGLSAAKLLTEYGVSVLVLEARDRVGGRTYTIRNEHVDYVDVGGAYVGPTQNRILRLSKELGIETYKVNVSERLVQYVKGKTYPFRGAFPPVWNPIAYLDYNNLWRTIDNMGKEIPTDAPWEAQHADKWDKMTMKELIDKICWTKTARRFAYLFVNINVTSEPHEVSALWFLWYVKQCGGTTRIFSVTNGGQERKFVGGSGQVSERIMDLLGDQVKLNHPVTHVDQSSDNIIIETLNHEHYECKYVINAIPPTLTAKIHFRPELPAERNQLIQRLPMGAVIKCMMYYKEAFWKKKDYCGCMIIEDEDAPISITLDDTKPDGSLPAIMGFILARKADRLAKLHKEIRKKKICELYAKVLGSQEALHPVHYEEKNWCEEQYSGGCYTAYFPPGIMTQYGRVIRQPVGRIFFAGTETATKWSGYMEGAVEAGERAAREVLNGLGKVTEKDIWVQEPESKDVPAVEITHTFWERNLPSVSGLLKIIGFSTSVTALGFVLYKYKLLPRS

MAO-B [2] = target: T2, MAO-B (Homo sapiens, UniProt P27338); test: MAO-B inhibition, kynuramine to 4-hydroxyquinoline, HPLC-fluorescence; type: biochemical
T2 construct: purchased BD Biosciences (San Jose, CA) or Corning Discovery Labware (Woburn, MA)
T2 sequence (P27338 1-520): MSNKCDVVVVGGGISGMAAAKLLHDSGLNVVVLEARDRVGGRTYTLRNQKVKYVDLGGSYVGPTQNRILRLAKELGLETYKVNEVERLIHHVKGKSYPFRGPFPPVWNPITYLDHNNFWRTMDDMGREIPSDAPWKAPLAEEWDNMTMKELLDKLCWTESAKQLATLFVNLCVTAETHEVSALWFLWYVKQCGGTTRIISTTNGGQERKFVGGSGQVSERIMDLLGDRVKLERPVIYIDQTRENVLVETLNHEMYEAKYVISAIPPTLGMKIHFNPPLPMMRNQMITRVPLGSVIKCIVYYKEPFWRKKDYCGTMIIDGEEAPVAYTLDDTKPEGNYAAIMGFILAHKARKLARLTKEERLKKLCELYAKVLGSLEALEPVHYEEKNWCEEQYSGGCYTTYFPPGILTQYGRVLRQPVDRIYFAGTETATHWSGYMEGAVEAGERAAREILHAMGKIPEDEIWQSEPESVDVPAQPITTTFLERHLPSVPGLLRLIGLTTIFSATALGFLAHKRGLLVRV

MAO-A in rat brain = settings: cited from earlier work
MAO-B in rat brain = target: MAO-B in rat brain; set-up: method as in PMID 15120460; settings: cited from earlier work
MAO-A in mouse brain = settings: after p.o. administration; cited from earlier work
MAO-B in mouse brain = settings: after p.o. administration; cited from earlier work
human MAO-B = system: human MAO-B; set-up: method as in PMID 15095350; settings: cited from earlier work
[3] = set-up: method as in earlier work; settings: cited from earlier work
MAO-B [4] = target: T2, MAO-B; test: Kynuramine oxidative deamination kinetics (saturation, optimization) with MAO-B; type: biochemical; settings: mean ± SEM
Protocol: (§1) The optimized incubation time and human recombinant MAO concentration were selected in the linear range from the time-dependent and MAO concentration-dependent studies (Supplemental Data). Briefly, samples were prepared in potassium phosphate buffer (100 mM, pH 7.4) with a final concentration of MAO in the reaction solution of 0.01 mg/mL, incubated at 37°C for 15 min. Saturation of kynuramine metabolism with MAO-A/B was carried out at concentrations of 2, 5, 10, 25, 50, 100, 250, 500 μM. The enzymatic reactions (200μL) were stopped by 2 N NaOH (75 μL) followed with 70% perchloric acid (25 μL). The samples were vortexed and centrifuged for 5 min at 10,000×g. The supernatant was analyzed by HPLC as described above.
(§2) GraphPad Prism 5 was applied to fit a Michaelis-Menten model to the data to obtain the Km values in the saturation experiments. In the screening experiments, significant differences between control and treated group were determined by a one-way ANOVA followed by Dunnett's posttest (p < 0.05). […] The maximum single doses are from published sources. The relevant GI concentration is the lesser of either solubility or the concentration after a single dose.
(§3) Kynuramine (2 to 500 μM) was incubated in 200 μL potassium phosphate buffer (100 mM, pH 7.4) for 15 min with MAO-A or MAO-B (0.01 mg/mL). Michaelis-Menten model was used to fit the data by GraphPad Prism 5. The experiments were conducted 3 times in triplicate. Single representative experiments are shown. […]
(§4) Table S7. Sample Processing Stability for 4-Hydroxyquinoline […]
(§5) B. Optimization of Enzyme Incubations […]
(§6) Kynuramine (10 µM) was incubated with MAO-A (0.01 mg/mL) in 200 µL potassium phosphate buffer (100 mM, pH 7.4) for 10, 20, 30, 40, and 60 min. The formation of 4-hydroxyquinoline was analyzed after the enzymatic reaction. […]

MAO-A [5] = settings: cited from earlier work
MAO-A [6] = target: T1, MAO-A; test: Kynuramine oxidative deamination kinetics (saturation, optimization) with MAO-A; type: biochemical; settings: mean ± SEM
Protocol: as §1, §2, §3, §4, §5, §6

human MAO-A = system: human MAO-A; set-up: method as in PMID 15095350; settings: cited from earlier work
MAO-B [7] = settings: cited from earlier work
MAO-A [8] = target: T1, MAO-A; test: Inhibition mechanism studies (competition, time dependence) with MAO-A; type: biochemical; settings: 1 μM, preincubation 0-60 min, then kynuramine 20 μM
[9] = kynuramine 10 µM, MAO-B 0.01 mg/mL, 15 min
[10] = highest expected luminal concentration: curcumin 140, guaiacol 435, isoeugenol 110, pterostilbene 270, resveratrol 94, zingerone 51 µM, p < 0.05 vs control
[11] = 15 µM test compound (clorgyline 1 µM, selegiline 0.5 µM), kynuramine 10 µM, 15 min

Molecule: isoeugenol
inhibition of MAO-A activity in screening (MAO-A [1]): significantly inhibited | MAO-A Hill coefficient (MAO-A [1]): 1.2 ± 0.1 | Selectivity Index (MAO-A [1]): 27.4 | inhibition of MAO-B activity in screening (MAO-B [2]): significantly inhibited | MAO-B Hill coefficient (MAO-B [2]; [9]): 2.4 ± 0.3

inhibition of MAO-A activity in screening (MAO-A [1]): significantly inhibited | IC50 (MAO-A [1]): 131 ± 6 µM | Selectivity Index (MAO-A [1]): 2.46 | inhibition of MAO-B activity in screening (MAO-B [2]; [10]): significantly inhibited | IC50 (MAO-B [2]; [9]): 322 ± 27 µM
Molecule: COc1ccccc1O [guaiacol]

Molecule: COc1ccc(C(C)=O)c(O)c1 [paeonol]
Ki (MAO-A in rat brain): 51.1 µM | mode of inhibition, MAO-A (MAO-A in rat brain): non-competitive | Ki (MAO-B in rat brain): 38.2 µM | mode of inhibition, MAO-B (MAO-B in rat brain): competitive

Molecule: COc1cc(/C=C/C(=O)CC(=O)/C=C/c2ccc(O)c(OC)c2)ccc1O [curcumin]
inhibition of MAO-A activity in screening (MAO-A [1]): significantly inhibited | MAO-A Hill coefficient (MAO-A [1]): 2.0 ± 0.4 | MAO-A inhibition in mouse brain (MAO-A in mouse brain): inhibits | inhibition of MAO-B activity in screening (MAO-B [2]; [10]): significantly inhibited | MAO-B Hill coefficient (MAO-B [2]; [9]): 1.7 ± 0.1 | MAO-B inhibition in mouse brain (MAO-B in mouse brain): inhibits

MAO-A inhibition (Figure 6) (MAO-A [1]): inhibited both enzymes | MAO-B inhibition (Figure 6) (MAO-B [2]; [11]): inhibited both enzymes
Molecule: O=c1cc(-c2ccccc2)oc2cc(O)cc(O)c12 [chrysin]

Molecule: Cc1cc(O)c2c(c1)C(=O)c1cc(O)cc(O)c1C2=O [emodin]
Ki (MAO-B in rat brain): 15.1 µM | mode of inhibition, MAO-B (MAO-B in rat brain): mixed mode

rate of 4-hydroxyquinoline formation, time-dependent study, MAO-B (MAO-B [4]; kynuramine 10 µM, MAO-B 0.01 mg/mL, 10-60 min): 2.70 ± 0.07 nmol/mg/min | rate of 4-hydroxyquinoline formation, MAO concentration-dependent study, MAO-B (MAO-B [4]; kynuramine 10 µM, MAO-B 0.003-0.03 mg/mL, 15 min): 3.66 ± 0.08 nmol/mg/min | Vmax, MAO-B (MAO-B [4]; kynuramine 2-500 μM, 15 min): 7.35 ± 0.69 nmol/min/mg | rate of 4-hydroxyquinoline formation, time-dependent study, MAO-A (MAO-A [6]; kynuramine 10 µM, MAO-A 0.01 mg/mL, 10-60 min): 3.28 ± 0.09 nmol/mg/min | rate of 4-hydroxyquinoline formation, MAO concentration-dependent study, MAO-A (MAO-A [6]; kynuramine 10 µM, MAO-A 0.003-0.03 mg/mL, 15 min): 3.06 ± 0.03 nmol/mg/min | Vmax, MAO-A (MAO-A [6]; kynuramine 2-500 μM, 15 min): 10.2 ± 0.2 nmol/min/mg
Molecule: NCCC(=O)c1ccccc1N [kynuramine]
Km (human MAO-B): 26 µM | estimated most basic pKa [3]: 8.4 | Km (MAO-A [5]): 44.1 µM | Km (human MAO-A): 42 µM | Km (MAO-B [7]): 90 µM

Molecule: OC[C@H]1O[C@@H](Oc2cc(O)cc(/C=C/c3ccc(O)cc3)c2)[C@H](O)[C@@H](O)[C@@H]1O [resveratrol 3-glucoside]
MAO-B inhibition (Figure 6) (MAO-B [2]): failed to inhibit

Molecule: O=c1c(O)c(-c2ccc(O)cc2)oc2cc(O)cc(O)c12 [kaempferol]
MAO-A inhibition (MAO-A [5]): selective MAO-A inhibitor

Molecule: O=C(/C=C/C=C/c1ccc2c(c1)OCO2)N1CCCCC1 [piperine]
Ki (MAO-A in rat brain): 35.8 µM | mode of inhibition, MAO-A (MAO-A in rat brain): mixed | Ki (MAO-B in rat brain): 79.9 µM | mode of inhibition, MAO-B (MAO-B in rat brain): competitive

Molecule: N[C@@H]1C[C@H]1c1ccccc1 (racemic) [tranylcypromine]
plateau inhibition, MAO-A (MAO-A [8]): 48%

MAO-A inhibition (Figure 6) (MAO-A [1]): inhibited MAO-A | MAO-B inhibition (Figure 6) (MAO-B [2]; [11]): failed to inhibit
Molecule: OC[C@H]1O[C@@H](Oc2ccc(/C=C/c3cc(O)cc(O)c3)cc2)[C@H](O)[C@@H](O)[C@@H]1O [resveratrol 4'-glucoside]

MAO-B inhibition (Figure 6) (MAO-B [2]; [11]): failed to inhibit
Molecule: COc1cc(/C=C/c2ccc(O[C@@H]3O[C@H](CO)[C@@H](O)[C@H](O)[C@H]3O)cc2)cc(OC)c1 [pterostilbene 4'-glucoside]

Molecule: Oc1ccnc2ccccc12 [4-hydroxyquinoline]
estimated most acidic pKa [3]: 4.3 | estimated most basic pKa [3]: 11.1

Molecule: O=c1c(O)c(-c2ccc(O)c(O)c2)oc2cc(O)cc(O)c12 [quercetin]
MAO-A inhibition (MAO-A [5]): inhibitor | MAO-B inhibition (MAO-B [7]): inhibitor

inhibition of MAO-A activity in screening (MAO-A [1]): only inhibited MAO-A | IC50 (MAO-A [1]): 16.3 ± 1.1 µM | inhibition at 51 µM (MAO-B [2]; 51 µM (GI concentration expected from maximum single dose)): < 10%
Molecule: COc1cc(CCC(C)=O)ccc1O [zingerone]
